# Tests used:
# [1] = system: urokinase type plasminogen activator; assay: Fibrin autography of CPAE culture solution after SDS-polyacrylamide gel electrophoresis; format: cell-based, calf; conditions: culture solution of CPAE cells added with compound; lysis at the position of molecular weight of urokinase type plasminogen activator
# From the text: It has been clarified that the compounds used according to the present invention are capable of inducing fibrinolytic activity in CPAE cells. In order to verify by what substance in addition to the α2-PI lowering activity, this fibrinolytic activity is induced, analysis was made on the culture solution added with Compound No. 2 out of the compounds used according to the present invention, by means of fibrin autography.
# By SDS-polyacrylamide gel using 10% gel, this culture solution and t-PA (tissue plasminogen activator) and urokinase were subjected to electrophoresis. After the electrophoresis, the gel was treated with 2.5% Triton X-100, which was inoculated on agar plate added with fibrinogen, thrombin and plasminogen. A place of fibrin which caused lysis was confirmed in an incubator of 37°C in 5% CO2.
# [2] = system: fibrin clot; assay: Lysis by urokinase of 125I-fibrin clots formed from plasma of treated Beagle dogs; format: in vivo; conditions: plasma 4 Days After Administration of 30 mg/kg once a day, 37°C, 12 hours, n=3
# Method: A test sample (Compound No. 2) was consecutively administered to Beagle dogs in a dose of 30 mg/kg once a day. Plasma was isolated prior to and 4 days after the administration. The α2-PI activity in plasma was measured and at the same time, fibrin clot was formed in vitro using the plasma. When urokinase as a thrombolytic agent was acted on the fibrin clot, a degree of lysis was compared between plasma prior to the administration and plasma 4 days after the administration.
# To 300 µl of the isolated plasma, 40 µl of ^125I-fibrinogen (0.1 mci/ml) was added and 50 µl each of the mixture was dispensed in a test tube. 5 µl each of a solution mixture of 25 U/ml thrombin and 0.5 M calcium chloride was added to each test tube, which was incubated at 37°C for 30 minutes to prepare fibrin clots. Solutions of 15 and 30 U/ml of urokinase in 2% albumin solution and the resulting solution ware charged in each test tube by 1 ml each.
# After incubating at 37°C for 12 hours, 25 µl of the supernatant was collected in an RAI tube and ^125I-fibrin decomposition products isolated in the supernatant were measured with a γ-counter. The sample number was 3 in each group.
# [3] = system: α2-PI; assay: α2-PI activity in plasma of Beagle dogs after consecutive intravenous administration (S-2251); format: in vivo; conditions: 30 mg/kg intravenous, consecutive 7 days, activity prior to administration = 100%, n=3
# Method: Three (3) male Beagle dogs were used for the control group and the administered group, respectively, as animals to be administered.
# A test sample (Compound No. 2) was dissolved in a concentration of […] 0.1 ml, using 0.1 M phosphage buffer (pH 7.2). After dissolution, the solution was sterilized by filtration through a sterile filter (pore size, 0.2 µm) and then 0.3 ml of the solution was administered per 1 kg of body weight (30 mg/kg). The administration was made through the right front limb vein for consecutive 7 days. Collected blood was mixed with 3.8% sodium citrate in a ratio of 1 : 9 by volume. By centrifugation at 3000 rpm for 15 minutes, plasma was isolated.
# The α2-PI activity was measured as an inhibition activity against decomposition of plasmin with the synthetic chromogenic substrate S-2251. The results of measurement are shown as change in inhibition activity after administration based on 100% of the plasmin inhibition activity prior to administration of the test sample (Table 2). The sample number in each group was 3 samples.
# The α2-PI activity was obviously depressed by consecutive administration of the test compound in a dose of 30 mg/kg.
# [4] = system: CPAE (calf pulmonary artery endothelia); assay: Thrombolytic test in vitro: CPAE culture supernatant on fibrin plate, lysis circle; format: cell-based; conditions: 5 µl of 0.2 mg/ml compound solution per well of CPAE cells, 72 hours; 5 µl supernatant on fibrin plate with plasminogen, 4 hours; 4 mm or more = thrombolytic ability induced
# Method: Thrombolytic activity-inducing ability in the established vascular endothelial cell culture system was examined using CPAE (calf pulmonary artery endothelia).
# […] cells were purchased from Dainippon Pharmaceutical Co., Ltd., Department of Laboratory Products. CPAE cells were subcultured in 10% FCS-Eagle MEM medium charged in a culture flask of 25 cm^2. From the cell suspension fractionated upon subculture, 0.1 ml was transferred into a test tube with a sterilized pipette. Then, the cell suspension was diluted to 10 fold with 0.9 ml of Trypan Blue solution and a cell count was counted with a cell counter. After diluting with 10% FCS-Eagle MEM medium so as to have a cell count of 2 x 10^5 cells/ml, 100 µl each/well, namely, 2 x 10^4 cells/well, of the dilution was dispensed in a 96 well microtiter plate (manufactured by Corning) with a micropipette. The plate was incubated at 37°C in 5% CO2.
# The compound used according to the present invention was dissolved in medium in 0.2 mg/ml; the compound that was insoluble in the medium was dissolved in less than 1% of DMSO and the resulting solution was aseptically filtered through a filter; 5 µl of the solution was added to the well with a sterilized micropipette 24 hours after onset of the incubation. After culturing at 37°C for 72 hours in 5% CO2, the collected culture supernatant was provided for measurement.
# The measurement was performed as follows. Plasminogen, 5 µl, was charged in a well of fibrin plate (manufactured by Kitazato institute), which was allowed to stand until diffusion was completed. After diffusion, 5 µl of the supernatant was charged and then put in a carbon dioxide gas incubator of 37°C. Four hours after, evaluation was made by formation of a transparent lysis circle by fibrinolysis.
# In the case of forming a circle of 4 mm or more due to fibrinolysis, it was judged that thrombolytic ability of CPAE cells was induced.
# After the fibrinolytic activity was checked over, the well was fixed with 2.5% of glutaraldehyde in a final concentration. Then, the solution was discarded and the system was washed with PBS. After washing, moisture was removed. After staining with 100 µl of 0.1% crystal violet and allowing stand for 2 to 3 minutes, the system was washed with running water. After an excess of the staining solution was washed out, moisture was removed and the dye bound to the cells was eluted by 100 µl of methanol. Using multiscanning (Titertech), measurements were performed at a wavelength of 580 nm in accordance with the ABS method and the matrix method to confirm that the cells were not injured.
# [5] = in vivo; conditions: mouse
# Method: Four (4) ddY strain male mice of 6 week age were used for each group of the test sample.
# In intravenous administration, each sample was dissolved in 0.9% physiological saline and the solution was administered through the tail vein. In intraperitoneal administration, each sample was suspended in 0.5% CMC-physiological saline and 0.1 ml of the suspension per […] of mouse body weight was intraperitoneally administered. In oral administration, each sample was suspended in 0.5% CMC-physiological saline and 0.2 ml of the suspension per […] administered.
# Observation was made immediately after the administration. After observation for 1 week after the administration, the mice was sacrificed with chloroform and subjected to autopsy.
smiles,measurement,setting,value
"CN1C[C@H](O)[C@@H](O)[C@H](O)[C@H]1CO [Compound No. 2, N-methylmoranoline]",Induction of urokinase type plasminogen activator in CPAE (fibrin autography),[1],strongly induced production of urokinase type plasminogen activator
same,Rate of Lysis of Fibrin Clot (%),[2]; Urokinase Activity 0 U,21.5%
same,Rate of Lysis of Fibrin Clot (%),[2]; Urokinase Activity 15 U,63.8%
same,Rate of Lysis of Fibrin Clot (%),[2]; Urokinase Activity 30 U,93.7%
same,α2-PI activity (%),[3]; Day 1,95%
same,α2-PI activity (%),[3]; Day 2,83%
same,α2-PI activity (%),[3]; Day 3,84%
same,α2-PI activity (%),[3]; Day 4,76%
same,α2-PI activity (%),[3]; Day 5,75%
same,α2-PI activity (%),[3]; Day 6,86%
same,α2-PI activity (%),[3]; Day 7,89%
same,Diameter (mm) of the circle due to fibrinolysis,[4],7.9 mm
same,LD50 at 168 h,[5]; ip,10000 mg/kg
same,LD50 at 168 h,[5]; iv,5090 mg/kg
same,LD50 at 168 h,[5]; po,10000 mg/kg

# — patent EP0319986B1, “Anti-plasmin depressant” (NIPPON SHINYAKU COMPANY, LIMITED, priority 1987, dated 1989)
